# Like-named read-outs stand apart in the source and are kept apart here. In the oligonucleotide strings, read from the 5' end, every base follows the letter of its sugar. An asterisk marks phosphorothioate; unmarked linkages are phosphodiester. Other units and linkages are bracketed, terminal groups are in braces. A string of capitals states the bases alone. Bridge positions count the residues as written; N and C are the ends. Square brackets hold non-standard residues; d marks the D form. Peptide text beside a SMILES is read from it. {FL} = fluorescein label; Dab = NCC[C@H](N)C(=O)O; d = 2'-deoxy (DNA); m = 2'-O-methyl
# Legend:
# [1] = test system: M. tuberculosis Erdman strain; assay type: cell-based
# [2] = test system: M. tuberculosis Erdman strain; assay type: cell-based; conditions: 6 weeks, O.D.; for inhibition of M. tuberculosis in the presence of antibiotic (in words): 10 μM plus ethambutol 5 μg/ml; for M. tuberculosis growth in the absence of antibiotic (in words): 10 μM
# M. tuberculosis = assay type: cell-based; conditions: log reduction in CFU vs untreated control or MM-PS-ODN cultures; 10 μM, added once at start
# [3] = test system: poly-L-glutamate/glutamine in the cell wall of M. tuberculosis; conditions: 20 μM; Harth et al. 1999; cited from earlier work
# [4] = test system: M. tuberculosis Erdman glutamine synthetase; conditions: 20 μM; Harth et al. 1999; cited from earlier work
# M. tuberculosis Erdman [5] = conditions: Harth et al. 1999, cited from earlier work
# M. tuberculosis Erdman [6] = assay type: cell-based
# M. tuberculosis Erdman [7] = assay: microbe, parasite or virus in culture; conditions: Mycobacterium tuberculosis
# M. smegmatis 1-2c [8] = assay: microbe, parasite or virus in culture; conditions: Mycolicibacterium smegmatis, 12C
# M. smegmatis 1-2c [9] = test system: M. smegmatis 1-2c
# M. tuberculosis Erdman [10] = test system: M. tuberculosis Erdman
compound,measurement,setting,value
5-GAACGCCGGGGTGTTGATGTCCCAGCCG (SEQ ID NO: 14) [ML10],"inhibition of M. tuberculosis growth in the presence of ethambutol, added only once","[1]; 10 μM plus ethambutol 5 μg/ml, 9 weeks",slightly enhanced the inhibition
same,"M. tuberculosis growth relative to control, added only once at the start","[1]; 10 μM, no antibiotic, 9 weeks, O.D.",slightly inhibited
same,"M. tuberculosis growth relative to control, added weekly for 9 weeks","[1]; 10 μM, no antibiotic, O.D.",inhibited
"5′-CACCTTCGCCACGATTGGAGCCCTCCA (SEQ ID NO: 13) (phosphorothioate, further chemistry not given here; listed as Mycobacterium tuberculosis) [Val 41, PS-ODN against nucleotides −15 to 12 of the groES gene]",inhibition of M. tuberculosis in the presence of antibiotic (in words),[2],enhanced the inhibition
same,M. tuberculosis growth in the absence of antibiotic (in words),[2],did not inhibit
5′-CCATGTCTTCACCGCTTCATCCTG (SEQ ID NO: 10) [Val 26],inhibition of M. tuberculosis in the presence of antibiotic (in words),[2],enhanced the inhibition
same,M. tuberculosis growth in the absence of antibiotic (in words),[2],did not inhibit
5′-CGCTTCATCCTGCCGTGTCGG (SEQ ID NO: 8) [Val 24],inhibition of M. tuberculosis in the presence of antibiotic (in words),[2],enhanced the inhibition
same,M. tuberculosis growth in the absence of antibiotic (in words),[2],did not inhibit
5′-TGCCGCAGCCACGGCGACGGCCGTGGT (SEQ ID NO: 11) [Val 33],inhibition of M. tuberculosis in the presence of antibiotic (in words),[2],enhanced the inhibition
same,M. tuberculosis growth in the absence of antibiotic (in words),[2],inhibited
5′-TGCCGCAGCCACGGCGACGGCCGTGGTGTCCGAACC (SEQ ID NO: 12) [Val 34],inhibition of M. tuberculosis in the presence of antibiotic (in words),[2],enhanced the inhibition
same,M. tuberculosis growth in the absence of antibiotic (in words),[2],inhibited
5′-TGGCCATGTCTTCACCGCTTCATCCTG (SEQ ID NO: 9) [Val 25],M. tuberculosis growth in the absence of antibiotic (in words),[2],did not inhibit
5′-TGGGGCTGGCCATGTCTTCAC-3′ (SEQ ID NO: 7) [Val 23],inhibition of M. tuberculosis in the presence of antibiotic (in words),[2],enhanced the inhibition
same,M. tuberculosis growth in the absence of antibiotic (in words),[2],inhibited
"5′>2′OMeACGAAC-CCTGTCAACAAG-2′OMeCTGCAT (antisense ACGAACCCTGTCAACAAGCTGCAT; sugars from the 5' end m6 d12 m6, all phosphorothioate, T or U not given here) [fbpA (SEQ ID NO: 26), antisense PS-ODN against fbpA with O-methyl groups at the 5′ and 3′ ends]",log Reduction,M. tuberculosis,0.4 log
5′>2′OMeATTCTT-TCGGCTCACGTC-2′OMeTGTCAT [fbpB (SEQ ID NO: 25)],log Reduction,M. tuberculosis,0.4 log
5′>AACGAATTCCTTCTGTCGGTCCAT (dA*dA*dC*dG*dA*dA*dT*dT*dC*dC*dT*dT*dC*dT*dG*dT*dC*dG*dG*dT*dC*dC*dA*dT; antisense) [glnA2],log Reduction,M. tuberculosis,0.05-0.1 log
5′>AACGGGAGTGACACGTGATTCCAT (dA*dA*dC*dG*dG*dG*dA*dG*dT*dG*dA*dC*dA*dC*dG*dT*dG*dA*dT*dT*dC*dC*dA*dT) [mas],log Reduction,M. tuberculosis,0.35 log
5′>AATCCGGCTGAAAGCCGTTCGCATCAC (dA*dA*dT*dC*dC*dG*dG*dC*dT*dG*dA*dA*dA*dG*dC*dC*dG*dT*dT*dC*dG*dC*dA*dT*dC*dA*dC; antisense) [ppsB],log Reduction,M. tuberculosis,0 log
5′>AATGATTTCTTCCTGAGTGACAGGCAC (dA*dA*dT*dG*dA*dT*dT*dT*dC*dT*dT*dC*dC*dT*dG*dA*dG*dT*dG*dA*dC*dA*dG*dG*dC*dA*dC; antisense) [acpM],log Reduction,M. tuberculosis,0 log
"5′>ACGAACCCTGTCAACAAGCTGCAT-GGGGG (antisense dA*dC*dG*dA*dA*dC*dC*dC*dT*dG*dT*dC*dA*dA*dC*dA*dA*dG*dC*dT*dG*dC*dA*dT*dG*dG*dG*dG*dG) [fbpA (SEQ ID NO: 27), antisense PS-ODN against fbpA with five Gs attached to the 3′ end]",log Reduction,M. tuberculosis,0.8 log
5′>CAAGATGGACACCGTCACCGCTAC (dC*dA*dA*dG*dA*dT*dG*dG*dA*dC*dA*dC*dC*dG*dT*dC*dA*dC*dC*dG*dC*dT*dA*dC; antisense) [murX],log Reduction,M. tuberculosis,0 log
5′>CACATCCAGCGACTTGGCCAGCTC (dC*dA*dC*dA*dT*dC*dC*dA*dG*dC*dG*dA*dC*dT*dT*dG*dG*dC*dC*dA*dG*dC*dT*dC; antisense) [rfbE],log Reduction,M. tuberculosis,0 log
5′>CGCCGCGCGCTCCGCCAGACTTGTCAT (dC*dG*dC*dC*dG*dC*dG*dC*dG*dC*dT*dC*dC*dG*dC*dC*dA*dG*dA*dC*dT*dT*dG*dT*dC*dA*dT; antisense) [ppsD],log Reduction,M. tuberculosis,0 log
5′>CGCGATCGCGTTCTCGGGGATGCTCAC (dC*dG*dC*dG*dA*dT*dC*dG*dC*dG*dT*dT*dC*dT*dC*dG*dG*dG*dG*dA*dT*dG*dC*dT*dC*dA*dC; antisense) [ppsE],log Reduction,M. tuberculosis,0 log
5′>CGGCCCTGCATGTCGGTGAACGCG (dC*dG*dG*dC*dC*dC*dT*dG*dC*dA*dT*dG*dT*dC*dG*dG*dT*dG*dA*dA*dC*dG*dC*dG; antisense) [glnA4],log Reduction,M. tuberculosis,0 log
"5′>FL-GCCGGGGTGTTGATATCCCAGCCG (5' {FL}, sugars by position and backbone not given here) [fbpB (SEQ ID NO: 24), antisense PS-ODN against fbpB (30 kDa protein gene) with fluorescein attached to the 5′ end]",log Reduction,M. tuberculosis,0.6 log
"5′>GACATTCTCCCAGAACCGTTTCAC (chemistry not given here) [air, antisense PS-ODN against the alr gene (alanine racemase) transcript]",log Reduction,M. tuberculosis,0.2 log
5′>GCACGGTCTTGGCCTGGGTGAGTC (dG*dC*dA*dC*dG*dG*dT*dC*dT*dT*dG*dG*dC*dC*dT*dG*dG*dG*dT*dG*dA*dG*dT*dC; antisense) [glnA3],log Reduction,M. tuberculosis,0 log
5′>GCCATTAGCGGTGGAAGGCTGACTCAC (dG*dC*dC*dA*dT*dT*dA*dG*dC*dG*dG*dT*dG*dG*dA*dA*dG*dG*dC*dT*dG*dA*dC*dT*dC*dA*dC; antisense) [kasA],log Reduction,M. tuberculosis,0 log
5′>GCTCTGAAACGTGCCGGTCTGAAC (dG*dC*dT*dC*dT*dG*dA*dA*dA*dC*dG*dT*dG*dC*dC*dG*dG*dT*dC*dT*dG*dA*dA*dC; antisense) [fadD26],log Reduction,M. tuberculosis,0.65 log
5′>GGACACCTCGAGACCGTACTGCAC (dG*dG*dA*dC*dA*dC*dC*dT*dC*dG*dA*dG*dA*dC*dC*dG*dT*dA*dC*dT*dG*dC*dA*dC) [rfe],log Reduction,M. tuberculosis,0.25 log
"5′>TC(c->g)GCGATCTGGTGTCGCTGCGGTCAT (phosphorothioate, 5' TC(c->g) prefix, further chemistry not given here) [ppsC]",log Reduction,M. tuberculosis,0 log
5′>TTCACCACTGATGCTTCCCGTCAT (dT*dT*dC*dA*dC*dC*dA*dC*dT*dG*dA*dT*dG*dC*dT*dT*dC*dC*dC*dG*dT*dC*dA*dT; antisense) [ppsA],log Reduction,M. tuberculosis,0 log
5′>TTTGCCGTCCAGCAGTCCTGTCAT (chemistry not given here) [lnhA],log Reduction,M. tuberculosis,0.05 log
CS(=N)(=O)CC[C@H](N)C(=O)O (stereo partly drawn) [L-methionine-S-sulfoximine],reduction of the amount of the poly-L-glutamate/glutamine cell wall structure,[3],93%
same,reduction of extracellular glutamine synthetase activity,[4],80%
same,inhibition of bacterial growth,M. tuberculosis Erdman [5]; 2 μM,1.5-2 log units
same,reduction of bacterial growth,M. tuberculosis Erdman [5]; 20 μM,≥ 2.5 log units
"NCC[C@H](O)C(=O)N[C@@H]1C[C@H](N)[C@@H](O[C@H]2O[C@H](CN)[C@@H](O)[C@H](O)[C@H]2O)[C@H](O)[C@H]1O[C@H]1O[C@H](CO)[C@@H](O)[C@H](N)[C@H]1O [amikacin, reference compound]",antibacterial effect of free antibiotic (in words),M. tuberculosis Erdman [6]; 1 μM,bacteriostatic
same,antibacterial effect of free antibiotic (in words),M. tuberculosis Erdman [6]; 5.8 μg per ml (10 μM),strongly bactericidal
CC[C@@H](CO)NCCN[C@@H](CC)CO [ethambutol],MIC,M. tuberculosis Erdman [7],~5 µg/mL
same,MIC,M. smegmatis 1-2c [8],~10 µg/mL
CC(C)C[C@@H]1NC(=O)[C@@H](Cc2ccccc2)NC(=O)[C@H](CCN)NC(=O)[C@@H](NC(=O)[C@H](CCN)NC(=O)[C@@H](N)[C@@H](C)O)CCNC(=O)[C@H]([C@@H](C)O)NC(=O)[C@H](CCN)NC(=O)[C@H](CCN)NC1=O [polymyxin B nonapeptide] (H-T[Dab][Dab][Dab][dF]L[Dab][Dab]T; lactam 3-C; N-terminus assumed),MIC,M. smegmatis 1-2c [9],~5 µg/mL
same,MIC,M. tuberculosis Erdman [10],~5 µg/mL
